Columns and labels:
[1] = tested on: extracellular DA in the NAc; experiment: Fiber photometry with GRABDA sensor in the NAc; type: in vivo, mice
Description: All in vivo experiments were performed in adult mice (>6 weeks old). For the photometry and microdialysis experiments, which were carried out in Florida, male C57BL/6J mice from The Jackson Laboratory (Bar Harbor, ME, USA) were group-housed in polycarbonate cages (GM500, Tecniplast, Buguggiate, Italy) with lights on from 7 a.m. to 7 p.m. Food and water were provided ad libitum. Photometry and microdialysis experiments were performed in accordance with a protocol approved by the Institutional Animal Care and Use Committee at Florida Atlantic University. […]
Mice were anesthetized with isoflurane (5% induction, 2% maintenance) and placed into a stereotaxic frame (Kopf Instruments, Tujunga, CA, USA) oriented in the flat skull position. […] Fascia was removed, coordinates for the NAc were determined relative to bregma: anterior/posterior = 1.54 mm; medial/lateral = 0.7 mm; dorsal/ventral = −4.1 mm. […]
To monitor light emitted from the G-protein coupled receptor-activation-based 5-HT (GRAB5-HT) and DA (GRABDA) sensors, fiber photometry was performed as described. […] Emitted, band-pass filtered light (500–550 nm, FMC6, Doric Lenses, Quebec,QC, Canada) was detected with a photodetector (Newport Femtowatt silicone PIN; New Focus, San Jose, CA, USA). Data were recorded using a RZ5P lock-in amplifier (Tucker-Davis Technologies, Alachua, FL, USA) controlled with Synapse software. […]

5-HT2B receptor = 5-HT2B receptor (Homo sapiens, UniProt P41595); set-up: method as in PMID 30610839; conditions: concentrations as high as 7 µM; cited from earlier work
Chain of 5-HT2B receptor (P41595 whole entry): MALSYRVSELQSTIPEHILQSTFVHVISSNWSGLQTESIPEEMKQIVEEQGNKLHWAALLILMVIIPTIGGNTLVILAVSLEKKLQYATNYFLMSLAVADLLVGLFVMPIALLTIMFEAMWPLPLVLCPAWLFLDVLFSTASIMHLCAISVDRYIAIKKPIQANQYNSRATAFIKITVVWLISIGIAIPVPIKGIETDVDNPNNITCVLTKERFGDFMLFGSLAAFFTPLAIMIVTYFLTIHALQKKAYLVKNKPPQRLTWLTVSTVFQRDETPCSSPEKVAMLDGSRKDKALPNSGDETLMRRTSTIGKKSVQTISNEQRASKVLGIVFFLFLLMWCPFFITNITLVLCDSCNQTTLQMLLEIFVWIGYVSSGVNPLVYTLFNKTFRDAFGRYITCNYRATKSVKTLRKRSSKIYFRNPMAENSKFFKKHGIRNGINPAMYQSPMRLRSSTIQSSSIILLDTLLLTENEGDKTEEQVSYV

Row | SMILES | basal DA levels in the NAc (GRABDA fluorescence) ([1]; 10 mg kg-1 intraperitoneal) | basal DA levels in the NAc (GRABDA fluorescence) ([1]; 5 mg kg-1 intraperitoneal) | binding to the 5-HT2B receptor (5-HT2B receptor)
1 | CN[C@@H](C)C(=O)c1ccc(C(F)(F)F)cc1 [S-4-TFMMC, 4-trifluoromethyl-N-methylcathinone] | neither S-4-MC, nor S-4-TFMMC significantly elevated the basal DA levels |  | 
2 | Cc1ccc(C(=O)[C@H](C)N)cc1 [S-4-MC, 4-methylcathinone] |  | neither S-4-MC, nor S-4-TFMMC significantly elevated the basal DA levels | no binding

— PMC9645344, “Serotonin-releasing agents with reduced off-target effects” (Molecular Psychiatry, 2022)
